Laboratory results published in article PMC12702354, “Engineered an ultrasmall curcumin oral nanoformulation restores intestinal integrity and gut microbiota dysbiosis” (Materials Today Bio, 2025).

Key:
[1] = system: faecal metabolites of gut bacteria; assay: Faecal metabolome analysis (GC-MS) in VAN-induced mice; type: in vivo, C57BL/6 mice; settings: faeces, VAN vs treated group, n = 5
Procedure: The extract of faecal samples (40 mg/ml methanol) was prepared as described in the previous method. The obtained dry extract was derivatized with methoxyamine-HCl and BSTFA (Sigma-Aldrich, USA), followed by incubation for 1 h at 37 °C. Subsequently, the supernatant (10 μl) obtained after centrifugation at 10,000×g for 12 min was injected into an Agilent GC-MS. The injector, transfer line, and ion source were set at 280 °C, 150 °C and 230 °C, respectively. At the beginning, we set the oven temperature to 60 °C, and then increased at 60 °C/min for 2 min, followed by an increase at the rate of 10 °C/min until reaching 300 °C.

[2] = system: Caco-2 cell monolayer; assay: TEER of Caco-2 cell monolayer; type: cell-based, human; settings: applied apically 120 min, then removed
Procedure: First, 5 × 10^4 Caco-2 cells/well, as a gastrointestinal epithelium model were cultured in transwell plates (Thermo Fisher, India) with a pore size of 0.4 μm. Once the TEER values attained 500 Ω cm^2, the cell monolayers were utilized for the subsequent experiments. Initially, mucin (10 mg/mL PBS) was introduced into the apical medium to mimic the occurrence of mucus, whereas PBS without mucin was utilized to represent the condition lacking mucus. Subsequently, IF (20 μL, 100 IU/mL) and 200 μL of CUR formulations (1 mg/mL) were introduced into the upper chambers. While incubating in a water bath at 37 °C, samples were taken from the lower chambers for analysis at various time intervals. A portion of the basolateral medium was taken out and examined using RP-HPLC to quantify the CUR content. The Papp of CUR was determined using the method outlined in a previous study. To analyze intracellular uptake, cells were gathered and underwent multiple freeze-thaw cycles prior to being lysed for 60 min. The concentration of CUR taken up by the cells was assessed using HPLC. Additionally, TEER measurements were recorded to evaluate the effect of CUR formulations on the monolayer's integrity. The baseline TEER readings for the Caco-2 cell layer were recorded. The apical media were then substituted with CUR formulations (200 μL). […] The Papp values for CUR were calculated.

COc1cc(/C=C/C(=O)CC(=O)/C=C/c2ccc(O)c(OC)c2)ccc1O [free-CUR, curcumin]
Fold change, 2,4,5-Trihydroxypentanoic acid [1]: 0.778
Fold change, 2-Hydroxyglutaric acid [1]: 3.491
Fold change, 4-Aminobutyric acid [1]: 0.998
Fold change, 4-Hydroxy-3-methoxybenzoic acid [1]: 0.619
Fold change, 4-Hydroxyproline [1]: 0.924
Fold change, 5-Aminovaleric acid [1]: 1.101
Fold change, 9,12,15-Octadecatrienoic acid [1]: 1.217
Fold change, 9-(Z)-Hexadecenoic acid [1]: 1.102
Fold change, Acetate [1]: 0.733
Fold change, Adenine [1]: 0.325
Fold change, Alanine [1]: 0.743
Fold change, Arabitol [1]: 0.432
Fold change, Aspartic acid [1]: 3.075
Fold change, Azelaic acid [1]: 0.849
Fold change, Benzenepropanoic acid [1]: 0.368
Fold change, Butyrate [1]: 0.168
Fold change, Cholesta-8,24-dien-3-ol, 4-methyl-, (3β,4α) [1]: 1.313
Fold change, D-fructose [1]: 1.400
Fold change, D-glucose [1]: 1.069
Fold change, Eicosanoic acid [1]: 0.404
Fold change, Erythronic acid [1]: 1.754
Fold change, Ethanolamine [1]: 1.266
Fold change, Fucose [1]: 0.580
Fold change, Galacturonic acid [1]: 1.024
Fold change, Gentiobiose [1]: 2.357
Fold change, Gluconic acid [1]: 1.119
Fold change, Glutaric acid [1]: 0.708
Fold change, Glycerol [1]: 0.926
Fold change, Glycerol-3-phosphate [1]: 2.032
Fold change, Glycolic acid [1]: 2.144
Fold change, Hexadecanoic acid [1]: 1.155
Fold change, Hexanoic acid [1]: 1.359
Fold change, Homoserine [1]: 2.352
Fold change, Hypoxanthine [1]: 0.916
Fold change, Isoleucine [1]: 1.058
Fold change, L-rhamnose [1]: 0.191
Fold change, Lactic acid [1]: 0.573
Fold change, Leucine [1]: 0.704
Fold change, Lysine [1]: 0.526
Fold change, Methionine [1]: 1.121
Fold change, Nicotinic acid [1]: 0.616
Fold change, Octadecadienoic acid [1]: 1.285
Fold change, Ornithine [1]: 0.453
Fold change, Orotic acid [1]: 1.443
Fold change, Pantothenic acid [1]: 0.519
Fold change, Pentadecanoic acid [1]: 0.271
Fold change, Phenylalanine [1]: 0.989
Fold change, Phosphoric acid [1]: 1.212
Fold change, Propionate [1]: 1.530
Fold change, Ribitol [1]: 1.340
Fold change, Serine [1]: 0.538
Fold change, Sorbitol [1]: 1.816
Fold change, Tetradecanoic acid [1]: 0.349
Fold change, Threitol [1]: 2.116
Fold change, Threonic acid [1]: 1.362
Fold change, Threonine [1]: 1.275
Fold change, Thymine [1]: 1.214
Fold change, Tricosadiynoic acid [1]: 0.767
Fold change, Tryptophan [1]: 1.117
Fold change, Uracil [1]: 0.561
Fold change, Uric acid [1]: 0.772
Fold change, beta-Alanine [1]: 1.217
Fold change, myo-Inositol [1]: 2.179
Fold change, myo-Inositol-1-phosphate [1]: 0.584
TEER change of cell monolayer [2]: kept the TEER steady
